{
  "source": "patent US7732395B2",
  "about": "“Water-stabilized antimicrobial organosilane products, compositions, and methods for using the same” (Vitec Specialty Chemicals Ltd., priority 2006, dated 2010)",
  "origin": "cited, not measured here",
  "conditions": "prior art",
  "data": [
    {"molecule": "CCCCCCCCCCCCCCCCCC[N+](C)(C)CCC[Si](OC)(OC)OC.[Cl-]", "note": "[3-(trimethoxysilyl)propyl-dimethyloctadecyl ammonium chloride]", "values": [
      {"measurement": "time after which the mixture with water begins to lose effectiveness", "result": "four to eight"}
    ]}
  ]
}
